Reference: patent publication US11033539B2, “Compounds of formulas (VII), (VIII), (IX), (XI), (XII), (XIII), and (XIV) as muscarinic receptor 4(M4) antagonists for treating neurological diseases” (Neurocrine Biosciences, Inc., priority 2015, dated 2021)

Target: human M4 receptor (Homo sapiens (Human), UniProt P08173)
Assay: Radioligand (tritiated N-methylscopolamine) binding assay, M4
Conditions: Ki against the M4 receptor; membranes from CHO cells expressing human M4; tritiated N-methylscopolamine 1.5 nM; read-out: Ki
Summary of the method: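 Test compound (12 concentrations, 10 μM to […]), 1.5 nM radioligand and CHO receptor membranes were co-incubated at 37 °C for 90 minutes in 50 mM HEPES buffer with 100 mM NaCl, 5 mM MgCl2 and 1 mM EDTA, pH 7.4. Membranes were then harvested onto polyethylenimine-pretreated filters and radioactivity was counted to determine Ki.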

Chain of human M4 receptor (P08173 whole entry): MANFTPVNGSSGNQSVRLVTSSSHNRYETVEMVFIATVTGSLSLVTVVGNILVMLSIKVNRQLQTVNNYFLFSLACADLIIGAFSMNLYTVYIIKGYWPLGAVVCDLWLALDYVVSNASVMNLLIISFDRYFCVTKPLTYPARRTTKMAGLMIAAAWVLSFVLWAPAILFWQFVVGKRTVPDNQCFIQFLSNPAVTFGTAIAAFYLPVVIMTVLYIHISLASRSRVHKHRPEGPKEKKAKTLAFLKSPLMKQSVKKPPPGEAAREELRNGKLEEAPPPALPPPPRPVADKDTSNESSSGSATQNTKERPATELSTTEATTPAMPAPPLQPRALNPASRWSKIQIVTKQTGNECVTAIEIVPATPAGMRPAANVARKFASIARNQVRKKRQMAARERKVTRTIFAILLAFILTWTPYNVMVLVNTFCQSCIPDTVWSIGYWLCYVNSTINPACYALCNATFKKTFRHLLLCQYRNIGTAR

Row | SMILES | Ki [µM]
1 | O=C(NCCC1CCN(Cc2ccccc2)CC1)C1CCN(c2ccc(OC(F)F)cc2)CC1 [10-76, N-[2-(1-benzylpiperidin-4-yl)ethyl]-1-[4-(difluoromethoxy)phenyl]piperidine-4-carboxamide] | 0.01 to 0.1
2 | CC(C)c1noc(C2CCN(C(=O)NCCC3CCN(Cc4ccccc4)CC3)CC2)n1 [8-31, N-[2-(1-benzylpiperidin-4-yl)ethyl]-4-[3-(propan-2-yl)-1,2,4-oxadiazol-5-yl]piperidine-1-carboxamide] | 0.1 to 1
3 | N#Cc1ccccc1N1CCC(C(=O)NCCC2CCN(Cc3ccccc3)CC2)CC1 [10-67, N-[2-(1-benzylpiperidin-4-yl)ethyl]-1-(2-cyanophenyl)piperidine-4-carboxamide] | 0.1 to 1
4 | Cc1nnc(C(c2ccccc2)N2CCC(CCNC(=O)N3CCN(c4cc(F)c(F)c(F)c4)C[C@H]3C)CC2)o1 (stereo partly drawn) [6-19, (2R)-2-methyl-N-(2-{1-[(5-methyl-1,3,4-oxadiazol-2-yl)(phenyl)methyl]piperidin-4-yl}ethyl)-4-(3,4,5-trifluorophenyl)piperazine-1-carboxamide] | 0.1 to 1
5 | C[C@@H]1CN(c2ccnc(C(F)(F)F)c2)CCN1C(=O)NCCC1CCN(Cc2ccccc2)CC1 [22-29] | 0.01 to 0.1
6 | O=C(NCCC1CCN(Cc2ccccc2)CC1)N1CCC(c2ccccc2)CC1 [8-38, N-[2-(1-benzylpiperidin-4-yl)ethyl]-4-phenylpiperidine-1-carboxamide] | 0.1 to 1
7 | Cn1cccc1CN1CCC(CCNC(=O)C2CCN(c3ccc(OC(F)(F)F)cc3)CC2)CC1 [11-15, N-(2-{1-[(1-methyl-1H-pyrrol-2-yl)methyl]piperidin-4-yl}ethyl)-1-[4-(trifluoromethoxy)phenyl]piperidine-4-carboxamide] | 0.1 to 1
8 | O=C(NCCC1CCN(Cc2ccccc2)CC1)C1CCN(c2ccc(OC(F)(F)F)cn2)CC1 [10-1, N-[2-(1-benzylpiperidin-4-yl)ethyl]-1-[5-(trifluoromethoxy)pyridin-2-yl]piperidine-4-carboxamide] | 0.01 to 0.1
9 | COc1cccc(N2CCC(C(=O)NCCC3CCN(Cc4ccccc4)CC3)CC2)c1 [10-53, N-[2-(1-benzylpiperidin-4-yl)ethyl]-1-(3-methoxyphenyl)piperidine-4-carboxamide] | 0.1 to 1
10 | N#Cc1ccc(-n2cnc(C(=O)NCCC3CCN(Cc4ccccc4)CC3)c2)nc1 [9-75, N-[2-(1-benzylpiperidin-4-yl)ethyl]-1-(5-cyanopyridin-2-yl)-1H-imidazole-4-carboxamide] | 0.1 to 1
11 | C[C@@H]1CN(c2ncc(C(F)(F)F)cn2)CCN1C(=O)NCCC1CCN(Cc2ccccc2F)CC1 [6-38, (2R)-N-(2-{1-[(2-fluorophenyl)methyl]piperidin-4-yl}ethyl)-2-methyl-4-[5-(trifluoromethyl)pyrimidin-2-yl]piperazine-1-carboxamide] | 0.01 to 0.1
12 | O=C(NCCC1CCN(Cc2ccccc2)CC1)[C@H]1CCN(c2ccc(OC(F)(F)F)cc2)C1 [10-71, (3S)-N-[2-(1-benzylpiperidin-4-yl)ethyl]-1-[4-(trifluoromethoxy)phenyl]pyrrolidine-3-carboxamide] | 0.1 to 1
13 | O=C(NC1CCN(c2ccc(F)cc2)CC1)OCCC1CCN(Cc2ccccc2)CC1 [12-6, 2-(1-benzylpiperidin-4-yl)ethyl N-[1-(4-fluorophenyl)piperidin-4-yl]carbamate] | 0.1 to 1
14 | C[C@@H]1CN(c2cc(F)c(F)c(F)c2)CCN1C(=O)NCCC1CCN(Cc2ccc3c(c2)OCCO3)CC1 [6-9, (2R)-N-{2-[1-(2,3-dihydro-1,4-benzodioxin-6-ylmethyl)piperidin-4-yl]ethyl}-2-methyl-4-(3,4,5-trifluorophenyl)piperazine-1-carboxamide] | 0.01 to 0.1
15 | C[C@@H]1CN(c2ccc(C#N)s2)CCN1C(=O)NCCC1CCN(Cc2ccccc2)CC1 [4-44, (2R)-N-[2-(1-benzylpiperidin-4-yl)ethyl]-4-(5-cyanothiophen-2-yl)-2-methylpiperazine-1-carboxamide] | 0.01 to 0.1
16 | O=C(NCCC1CCN(Cc2ccc(F)cc2)CC1)c1ccc(OCc2ccccc2)cc1 [6-15, 4-(benzyloxy)-N-(2-{1-[(4-fluorophenyl)methyl]piperidin-4-yl}ethyl)benzamide] | 0.01 to 0.1
17 | COC1(C(=O)NCCC2CCN(Cc3ccccc3)CC2)CCN(c2ccc(OC(F)(F)F)cn2)CC1 [10-63, N-[2-(1-benzylpiperidin-4-yl)ethyl]-4-methoxy-1-[5-(trifluoromethoxy)pyridin-2-yl]piperidine-4-carboxamide] | 0.1 to 1

Results, then the compound that gave them:

Row | Ki [µM] | SMILES
18 | 0.01 to 0.1 | C[C@@H]1CN(c2ncc(C#N)cn2)C[C@H](C)N1C(=O)NCCC1CCN(CC2CCCCC2)CC1 [21-1, (2R,6S)-4-(5-cyanopyrimidin-2-yl)-N-{2-[1-(cyclohexylmethyl)piperidin-4-yl]ethyl}-2,6-dimethylpiperazine-1-carboxamide]
19 | 0.01 to 0.1 | C[C@H]1CN(c2ncc(C#N)cn2)CCC1C(=O)NCCC1CCN(Cc2ccccc2)CC1 (stereo partly drawn) [20-1, (3R)-N-[2-(1-benzylpiperidin-4-yl)ethyl]-1-(5-cyanopyrimidin-2-yl)-3-methylpiperidine-4-carboxamide]
20 | 0.01 to 0.1 | N#Cc1cc(N2CCC(C(=O)NCCC3(O)CCN(Cc4ccccc4)CC3)CC2)ccc1F [9-44, N-[2-(1-benzyl-4-hydroxypiperidin-4-yl)ethyl]-1-(3-cyano-4-fluorophenyl)piperidine-4-carboxamide]
21 | 0.1 to 1 | C[C@@H]1CN(c2cc(F)c(F)c(F)c2)CCN1C(=O)NCCC1CCN(Cc2cccc(OC(F)(F)F)c2)CC1 [6-20, (2R)-2-methyl-N-[2-(1-{[3-(trifluoromethoxy)phenyl]methyl}piperidin-4-yl)ethyl]-4-(3,4,5-trifluorophenyl)piperazine-1-carboxamide]
22 | 0.01 to 0.1 | Cc1c(C(=O)NCCC2CCN(Cc3ccccc3)CC2)cnc2cc(-c3ccc(Cl)cc3)nn12 [17-4, N-[2-(1-benzylpiperidin-4-yl)ethyl]-2-(4-chlorophenyl)-7-methylpyrazolo[1,5-a]pyrimidine-6-carboxamide]
23 | 0.01 to 0.1 | C[C@@H]1CN(c2cnc(C#N)cn2)C[C@H](C)N1C(=O)NCCC1CCN(Cc2ccccc2)CC1 [23-2, (2R,6S)-N-[2-(1-benzylpiperidin-4-yl)ethyl]-4-(5-cyanopyrazin-2-yl)-2,6-dimethylpiperazine-1-carboxamide]
24 | 0.1 to 1 | C[C@@H]1CN(c2cc(F)c(F)c(F)c2)CCN1C(=O)NCCC1CCN(Cc2cc(F)cc(F)c2)CC1 [6-23, (2R)-N-(2-{1-[(3,5-difluorophenyl)methyl]piperidin-4-yl}ethyl)-2-methyl-4-(3,4,5-trifluorophenyl)piperazine-1-carboxamide]
25 | 0.01 to 0.1 | CN(C(=O)NCCC1CCN(Cc2ccccc2)CC1)C1CCN(c2ncc(C(F)(F)F)cc2Cl)C1 (stereo not drawn) [8-16, 1-[2-(1-benzylpiperidin-4-yl)ethyl]-3-{1-[3-chloro-5-(trifluoromethyl)pyridin-2-yl]pyrrolidin-3-yl}-3-methylurea]
26 | 0.1 to 1 | N#Cc1ccc(N2CCC(C(=O)NCCC3CCN(Cc4ccccc4)CC3)CC2)c(F)c1 [10-50, N-[2-(1-benzylpiperidin-4-yl)ethyl]-1-(4-cyano-2-fluorophenyl)piperidine-4-carboxamide]
27 | 0.1 to 1 | Cc1cc(C(=O)NC2CC2)nc(N2CCN(C(=O)NCCC3CCN(Cc4ccccc4)CC3)[C@H](C)C2)n1 [27-14]
